From ChEMBL document CHEMBL3994639, “Identification of novel ROS inducer by merging the fragments of piperlongumine and dicoumarol” (Bioorg Med Chem Lett, 2017)
Converted amounts (≈) assume the structure as drawn. The source made the active and inactive calls. The calls are words filed in the database; no cut-off is given here.

Experiments:
HCT-116 = experiment: Cytotoxicity against human HCT116 cells assessed as growth inhibition after 72 hrs by MTT assay; assay type: functional, cell-based; conditions: HCT-116, 72 h
MRC5 = experiment: Cytotoxicity against human MRC5 cells after 72 hrs by MTT assay; assay type: cell-based; conditions: MRC5, 72 h
HepG2 = experiment: Cytotoxicity against human HepG2 cells assessed as growth inhibition after 72 hrs by MTT assay; assay type: functional, cell-based; conditions: HepG2, 72 h
A549 [1] = experiment: Cytotoxicity against human A549 cells assessed as growth inhibition after 72 hrs by MTT assay; assay type: functional, cell-based; conditions: A549, 72 h
[2] = Permeability of the compound at pH 7.4; assay type: physicochemical; conditions: not told, read-out: permeability
[3] = Intrinsic solubility of the compound; assay type: physicochemical; conditions: read-out: Intrinsic_solubility
A549 [4] = experiment: Antitumor activity in human A549 cells xenografted in athymic nude mouse assessed as tumor growth inhibition at 5 mg/kg, ip administered every other day for 21 days; assay type: functional; conditions: 504 h, read-out: TGI
[5] = Lipophilicity, log D of compound at pH 7.4; assay type: physicochemical; conditions: buffer
Mus musculus = experiment: Toxicity in human A549 cells xenografted athymic nude mouse assessed as body weight loss at 5 mg/kg, ip administered every other day for 21 days; assay type: organism-based; conditions: in vivo, 504 h
A549 [6] = experiment: Induction of apoptosis in human A549 cells assessed as nuclei condensation after 24 hrs by DAPI staining based immunofluorescence microscopic analysis; assay type: functional, cell-based

Papp [2] [×10⁻⁶ cm/s] | solubility [3] [µg/mL] | logD [5] | Structure (SMILES) | IC50 (HCT-116) [µM] | IC50 (MRC5) [µM] | IC50 (HepG2) [µM] | IC50 (A549 [1]) [µM] | inhibition in vivo at 5 mg/kg (A549 [4]) [%] | Activity (Mus musculus) | Activity (A549 [6])
 |  |  | Cc1cc2oc(=O)c(/C=C/C(=O)N3CCC=CC3=O)c(O)c2cc1C | 5.1 | 35 | 7.8 | 15 |  |  | 
 |  |  | O=C1C=CCCN1C(=O)/C=C/c1c(O)c2ccc(F)cc2oc1=O | 11 | 8.9 | 9.7 | 18 |  |  | 
 |  |  | O=C1C=CCCN1C(=O)/C=C/c1c(O)c2ccccc2oc1=O | 15 | 22 | 6.7 | 12 |  |  | 
117 |  |  | CC(C)NCC(O)COc1cccc2ccccc12 (configuration not stated) [PROPRANOLOL] |  |  |  |  |  |  | 
24.6 | 0.75 (≈ 2.36 µM) | 2.84 | COc1cc(/C=C/C(=O)N2CCC=CC2=O)cc(OC)c1OC [PIPLARTINE] | 9.2 | 37 | 8.9 | 10 | 41.2 |  | 
 |  |  | COc1ccc2c(O)c(/C=C/C(=O)N3CCC=CC3=O)c(=O)oc2c1 | 18 | 31 | 12 | 11 |  |  | 
20.2 | 316 (≈ 787 µM) |  | COc1cc2c(O)c(/C=C/C(=O)N3CCC=CC3=O)c(=O)oc2c(OC)c1OC | 3.2 | 57 | 5.7 | 4.2 | 48.5 | Non-Toxic | Active
1.98 |  |  | CC(C(=O)O)c1cccc(C(=O)c2ccccc2)c1 (configuration not stated) [KETOPROFEN] |  |  |  |  |  |  | 
 |  |  | O=C1C=CCCN1C(=O)/C=C/c1c(O)c2ccc(Cl)cc2oc1=O | 12 | 19 | 15 | 6.5 |  |  | 
 |  |  | O=C1CCCCN1C(=O)CCc1c(O)c2ccccc2oc1=O | > 90 | 58 | > 90 | > 90 |  |  | 
 |  |  | COc1ccc2oc(=O)c(/C=C/C(=O)N3CCC=CC3=O)c(O)c2c1 | 10 | 53 | 7.1 | 9.8 |  |  | 
